Measured values from patent US20230348450A1, “CARBOXYLIC ACID-CONTAINING COMPOUNDS AS MODULATORS OF BIS-PHOSPHOGLYCERATE MUTASE FOR THE TREATMENT OF SICKLE CELL DISEASE” (Genzyme Corporation, priority 2020, published 2023).

Molecular target: hBPGM (Homo sapiens (Human), UniProt P07738)
Assay: BPGM Synthase Assay
Assay type: biochemical
Conditions: Table 6 additional results; read-out: huBPGM: synthase Enzyme IC50
Description: Example B1. BPGM Synthase Assay
The following materials were used in this assay: deionized water; Bisphosphoglycerate mutase (BPGM; Standard Buffer: 50 mM Tris, 0.01% Tween 20, pH 7.4); BPGM Reaction Buffer (50 mM Tris, 0.01% Tween 20, 3.23 mM KH2PO4, pH 7.4); dithiothreitol (DTT; Stock solution: 100 mM in Standard Buffer); 384-Well Black Assay Plate (Corning, P/N 3575); DMSO; BPGM Stock Solution (500 nM in BPGM Standard Buffer); Glyceraldehyde 3-phosphate dehydrogenase (GAPDH; Stock Solution: 40 U/mL in 20 mM Tris-HCL Buffer with 20% Glycerol, 1 mM EDTA, 1 mM DTT); Glyceraldehyde 3-phosphate (GAP; Stock Solution: 20 mM in BPGM Standard Buffer); 3-PG Stock Solution (500 μM in BPGM Standard Buffer); Nicotinamide adenine dinucleotide (NAD; Stock Solution: 50 mM in BPGM Standard Buffer); Koningic Acid (1 mM Stock in DMSO); Resazurin Stock Solution (10 mM in DMSO); Diaphorase Stock Solution (40 U/mL in BPGM Standard Buffer); DTT Reaction Buffer (1 mM DTT in BPGM Reaction Buffer); Enzyme Solution (5 nM BPGM, 0.4 U/mL GAPDH in DTT Reaction Buffer); GAPDH Solution (0.4 U/mL GAPDH in DTT Reaction Buffer); Substrate Solution (2 mM NAD, 20 μM 3PG, 800 μM GAP in DTT Reaction Buffer); and Resazurin Solution (5 U/mL Diaphorase, 500 μM Resazurin in BPGM Standard Buffer).
To the assay plate was added Enzyme Solution (20 uL) to columns 2-22 and 24 of the assay plate. To columns 1 and 23 was added GAPDH Solution (20 uL). A separate compound plate was prepared at the desired concentrations and all wells were normalized with 5% DMSO. The compound plate was incubated for 30 minutes at RT. Next, the substrate solution (20 μL) was dispensed to all reaction wells and the plate was incubated for 60 minutes at RT. Koningic acid (1 μL) was added and the plate was incubated for 10 minutes at RT. During this time period, the NADH fluorescence was read at ex: 360/em: 460. Next, Resazurin Solution (10 μL) was added to all reaction wells and the plate was incubated for 30 minutes at RT. The resorufin fluorescence was then read at ex:544/em:590.

Chain of hBPGM (P07738 whole entry, looked up): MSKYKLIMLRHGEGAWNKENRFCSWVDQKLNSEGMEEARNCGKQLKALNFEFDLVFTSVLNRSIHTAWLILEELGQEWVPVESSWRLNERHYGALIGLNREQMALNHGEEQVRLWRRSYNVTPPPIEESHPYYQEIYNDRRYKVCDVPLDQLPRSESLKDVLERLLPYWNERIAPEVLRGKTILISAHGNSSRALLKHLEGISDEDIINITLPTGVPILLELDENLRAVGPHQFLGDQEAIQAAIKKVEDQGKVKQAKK

Cc1nc(COc2ccc(F)cn2)sc1-c1ccn(-c2ccc(C(=O)O)c(C(F)F)c2)n1 [Example 17]
IC50: 890 nM

Cc1nc(COc2ccc(F)cn2)sc1-c1ccn(-c2ccc(C(=O)O)cc2)n1 [Example 18]
IC50: 650 nM

Cc1nc(COc2ccc(F)cn2)sc1-c1cnn(-c2ccc(C(=O)O)cc2)n1 [Example 19]
IC50: 850 nM

Cc1nc(COc2ccc(F)cn2)sc1-c1cnn(-c2ccc(C(=O)O)c(O)c2)c1 [Example 20]
IC50: 2100 nM

Cc1nc(COc2ccc(F)cn2)sc1-c1ccn(-c2ccc(C(=O)O)c(O)c2)n1 [Example 21]
IC50: 290 nM

Cc1nc(COc2ccc(F)cn2)sc1-c1cccc(-c2ccc(C(=O)O)c(C(F)F)c2)n1 [Example 22]
IC50: 290 nM

Cc1nc(COc2ncccn2)sc1-c1ccnc(-c2ccc(C(=O)O)cc2)c1 [Example 23]
IC50: 17000 nM

O=C(O)c1ccc(-c2cccc(N3CCC(COc4ncccn4)CC3)n2)cc1 [Example 24]
IC50: > 25000 nM

CN(C)C(=O)OCC1CCN(c2cccc(-c3ccc(C(=O)O)cc3)n2)CC1 [Example 25]
IC50: > 25000 nM

Cc1nc(COc2ccc(F)cn2)sc1-c1cccc(-c2ccc(C(=O)O)c(O)c2)n1 [Example 26]
IC50: 430 nM

Cc1nc(COc2ncccn2)sc1-c1cccc(-c2cc(C(=O)O)nn2C)n1 [Example 27]
IC50: 7400 nM

Cc1nc(COc2ncccn2)sc1-c1cccc(-c2ccc(C(=O)O)cc2C(C)C)n1 [Example 28]
IC50: > 25000 nM

Cc1nc(COc2ccc(F)cn2)sc1-c1cccc(-c2ccc(C(=O)O)c(C(F)F)c2)c1 [Example 29]
IC50: 1800 nM

Cc1nc(COc2ncccn2)sc1-c1cccc(-c2cc(C(=O)O)nn2C(C)C)n1 [Example 30]
IC50: 15000 nM

Cc1cc(C(=O)O)cc(C)c1-c1cccc(-c2sc(COc3ncccn3)nc2C)n1 [Example 31]
IC50: > 25000 nM

Cc1nc(COc2ncccn2)sc1-c1cccc(-c2ccc(C(=O)O)o2)n1 [Example 33]
IC50: 11000 nM

Cc1nc(COc2ncccn2)sc1-c1nc(-c2ccc(C(=O)O)cc2)cs1 [Example 34]
IC50: 340 nM

Cc1nc(COc2ncccn2)sc1-c1cccc(-c2ccc(C(=O)NC(CC(=O)O)c3ccccc3)cc2)n1 (centres unmarked) [Example 35]
IC50: 2600 nM

Cc1nc(COc2ncccn2)sc1-c1cccc(-c2ccc(C(=O)N[C@@H](C(=O)O)c3ccccc3)cc2)n1 [Example 36]
IC50: 2700 nM

O=C(O)c1ccc(-c2nc(-c3ccnc(COc4ncccn4)c3)cs2)cc1 [Example 37]
IC50: 7600 nM

O=C(O)c1ccc(-c2nc(-c3ccnc(CO)c3)cs2)cc1 [Example 38]
IC50: > 25000 nM

Cc1nc(COc2ncccn2)sc1-c1cccc(-c2cc(C(=O)O)co2)n1 [Example 39]
IC50: 18000 nM

Cc1nc(OCC2CCCCO2)sc1-c1cccc(-c2ccc(C(=O)O)cc2)n1 (centres unmarked) [Example 41]
IC50: 19000 nM

Cc1nc(CNCC(C)(C)C)sc1-c1cccc(-c2ccc(C(=O)O)cc2)c1 [Example 42]
IC50: > 25000 nM

Cc1nc(COc2ncc(C(F)(F)F)cn2)sc1-c1cccc(-c2ccc(C(=O)O)cc2)n1 [Example 43]
IC50: 23000 nM

Cc1nc(COC2CCOC2)sc1-c1cccc(-c2ccc(C(=O)O)cc2)c1 (centres unmarked) [Example 44]
IC50: 1900 nM

Cc1nc(COCC2CCCCO2)sc1-c1cccc(-c2ccc(C(=O)O)cc2)c1 (centres unmarked) [Example 45]
IC50: 1400 nM

Cc1nc(COCC2CCCO2)sc1-c1cccc(-c2ccc(C(=O)O)cc2)c1 (centres unmarked) [Example 46]
IC50: 1200 nM

Cc1nc(CO[C@@H]2CCCOC2)sc1-c1cccc(-c2ccc(C(=O)O)cc2)c1 [Example 47]
IC50: 980 nM

Cc1nc(COc2ccc(C(F)(F)F)nn2)sc1-c1cccc(-c2ccc(C(=O)O)cc2)n1 [Example 48]
IC50: 1900 nM

Cc1nc(COc2ncccn2)sc1-c1cccc(-c2ccc(C(=O)O)c(C(F)F)c2)n1 [Example 54]
IC50: 180 nM

Cc1nc(COC2CCCCO2)sc1-c1cccc(-c2ccc(C(=O)O)cc2)n1 (centres unmarked) [Example 55]
IC50: 380 nM

Cc1nc(COc2ccc(C(F)(F)F)cn2)sc1-c1cccc(-c2ccc(C(=O)O)cc2)n1 [Example 56]
IC50: 3300 nM

Cc1nc(COc2ccccn2)sc1-c1cccc(-c2ccc(C(=O)O)cc2)n1 [Example 57]
IC50: > 25000 nM

Cc1nc(COc2ccccn2)sc1-c1cccc(-c2ccc(C(=O)O)nc2)c1 [Example 58]
IC50: > 25000 nM

Cc1nc(COc2cnn(C(C)(C)C)c2)sc1-c1cccc(-c2ccc(C(=O)O)cc2)n1 [Example 59]
IC50: 970 nM

Cc1nc(Cn2cc(C(F)(F)F)cn2)sc1-c1cccc(-c2ccc(C(=O)O)cc2)n1 [Example 60]
IC50: 760 nM

Cc1nc(COc2ccc(C(F)(F)F)nc2)sc1-c1cccc(-c2ccc(C(=O)O)cc2)n1 [Example 61]
IC50: 1300 nM

Cc1nc(CNC(=O)C(C)(C)C)sc1-c1cccc(-c2ccc(C(=O)O)cc2)n1 [Example 62]
IC50: 1800 nM

Cc1nc(COC(=O)N(C)C)sc1-c1cccc(-c2ccc(C(=O)O)cc2)n1 [Example 64]
IC50: 910 nM

Cc1nc(COc2ccccn2)sc1-c1cccc(-c2ccc(C(=O)O)cn2)c1 [Example 69]
IC50: 5500 nM

Cc1nc(COc2ncccn2)sc1-c1cccc(-c2ccc(C(=O)O)c(C(=O)O)c2)n1 [Example 70]
IC50: 11000 nM

Cc1nc(CO)sc1-c1cccc(-c2c[nH]c(C(=O)O)c2)n1 [Example 77]
IC50: > 25000 nM

Cc1nc(COc2ncccn2)sc1-c1cccc(-c2ccc(C(=O)N3CCC(OCC(=O)O)CC3)cc2)n1 [Example 84]
IC50: > 25000 nM

Cc1nc(COc2ncccn2)sc1-c1cccc(-c2cnc(C(=O)O)nc2)n1 [Example 85]
IC50: > 25000 nM

Cc1nc(CO)sc1-c1cccc(-c2ccc(C(=O)NCC(=O)N3CCC(C(=O)O)CC3)cc2)n1 [Example 89]
IC50: > 25000 nM

Cc1nc(COc2ncccn2)sc1-c1cccc(-c2ccc(C(=O)NCC(=O)N3CCC(C(=O)O)CC3)cc2)n1 [Example 90]
IC50: > 25000 nM

Cc1nc(COc2ncccn2)sc1-c1cccc(-c2ccc(C(=O)NCC(=O)N3CCC(C(=O)O)C3)cc2)n1 (centres unmarked) [Example 91]
IC50: > 25000 nM

Cc1nc(CO)sc1-c1cccc(-c2ccc(C(=O)NCC(=O)N3CCC(C(=O)O)C3)cc2)n1 (centres unmarked) [Example 92]
IC50: > 25000 nM

Cc1nc(Cc2ccccc2F)sc1-c1cccc(-c2ccc(C(=O)O)c(O)c2)c1 [Example 104]
IC50: 1500 nM

Cc1ccc(C#N)c(OCCc2nc(C)c(-c3cccc(-c4ccc(C(=O)O)c(O)c4)c3)s2)n1 [Example 107]
IC50: 1900 nM

Cc1nc(CCc2ccccc2)sc1-c1cccc(-c2ccc(C(=O)O)c(O)c2)c1 [Example 109]
IC50: 8100 nM

Cc1ccc(C#N)c(OCCn2cc(-c3cccc(-c4ccc(C(=O)O)c(O)c4)c3)cn2)n1 [Example 110]
IC50: 8800 nM

Cc1ccc(C#N)c(OCCn2cc(-c3cccc(-c4ccc(C(=O)O)c(O)c4)c3)cn2)n1 [Example 111]
IC50: 15000 nM

Cc1ccc(C#N)c(OCCn2cc(-c3cccc(-c4ccc(C(=O)O)c(O)c4)c3)c(C)n2)n1 [Example 112]
IC50: 35000 nM

Cc1nc(C)c(C2CCCN(c3ccc(C(=O)O)c(O)c3)C2)s1 (centres unmarked) [Example 122]
IC50: > 250000 nM

Cc1nc(COCc2ccccn2)sc1-c1csc(-c2cc(O)c(C(=O)O)cc2F)n1 [Example 144]
IC50: 200 nM

Cc1nc(CNC(=O)C(C)(C)C)sc1-c1cccc(-c2cc(O)c(C(=O)O)cc2F)n1 [Example 150]
IC50: 500 nM

COC(=O)NCc1nc(C)c(-c2cc(-c3ccc(C(=O)O)c(O)c3)sn2)s1 [Example 157]
IC50: 800 nM
